Target: T1, Recombinant truncated stromelysin (human sequence) (Homo sapiens, UniProt P08254)
T1 construct: made in house; host or cells: E. coli
Test: Determination of stromelysin inhibition (cleavage of thiopeptide ester substrate, DTNB colour read at 405 nm)
Assay type: biochemical
Details: substrate Ac-Pro-Leu-Gly-[2-mercapto-4-methylpentanoyl]-Leu-Gly-OEt; 30 minute assay at ambient temperature; 50 mM MES/NaOH pH 6.5 with 10 mM CaCl2 and 0.2% Pluronic F-68
Description: The efficacy of the compounds of this invention as matrix metalloproteinase inhibitors was determined by measuring the inhibition of stromelysin. The inhibition of stromelysin by the compounds of this invention was determined as follows: Recombinant truncated stromelysin (human sequence) produced in E. coli was prepared by expression and purification of the protein as described by Ye et al. (Biochemistry, 1992, 31, 11231-11235, which is incorporated herein by reference). The enzyme was assayed by its cleavage of the thiopeptide ester substrate Ac-Pro-Leu-Gly-[2-mercapto-4-methylpentanoyl]-Leu-Gly-OEt as described by Weingarten and Feder (Anal. Biochem., 1985, 147, 437-440 (1985), which is incorporated herein by reference) as a substrate of vertebrate collagenase. The reported conditions were modified to allow assays to be carried out in a microtiter plate. Upon hydrolysis of the thioester bond, the released thiol group reacted rapidly with 5,5'-dithio-bis(2-nitrobenzoic acid) (DTNB) to produce a yellow color which was measured by a microtiter plate reader set at 405 nm. The rates of cleavage of the substrate by stromelysin in the presence or absence of inhibitors were measured in a 30 minute assay at ambient temperature. Solutions of the compounds in DMSO were prepared, and these were diluted at various concentrations into the assay buffer (50 mM MES/NaOH pH 6.5 with 10 mM CaCl2 and 0.2% Pluronic F-68), which was also used for dilution of the enzyme and substrate. The potency of the compounds [IC50] was calculated from the inhibition/inhibitor concentration data.

T1 sequence (P08254 100-272 limits assumed): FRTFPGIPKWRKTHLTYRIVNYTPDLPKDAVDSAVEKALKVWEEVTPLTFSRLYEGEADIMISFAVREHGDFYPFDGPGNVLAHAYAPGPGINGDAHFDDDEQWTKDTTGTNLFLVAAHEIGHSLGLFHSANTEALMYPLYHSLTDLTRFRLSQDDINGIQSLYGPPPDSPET

Q: Which IC50 does the source give for `N#Cc1ccc(-c2ccc(OCC(COc3ccccc3)N(O)C=O)cc2)cc1` (racemic) [Example 1, (±)-N-[1-[[(4'-cyano-[1,1'-biphenyl]-4-yl)oxy]methyl]-2-phenoxyethyl]-N-hydroxyformamide] here?
A: The IC50 was 130 nM.

Q: With `N#Cc1ccc(-c2ccc(OCC(CSc3ccccc3)N(O)C=O)cc2)cc1` (racemic) [Example 2, (±)-N-[1-[[(4'-cyano-[1,1'-biphenyl]-4-yl)oxy]methyl]-2-(phenylthio)ethyl]-N-hydroxyformamide] as the compound, how does the IC50 read?
A: Its IC50 is 36 nM.

Q: Which IC50 does the source give for `N#Cc1ccc(-c2ccc(OCC(CN3C(=O)c4ccccc4C3=O)N(O)C=O)cc2)cc1` (racemic) [Example 3, (±)-N-[1-[[(4'-cyano-[1,1'-biphenyl]-4-yl)oxy]methyl]-2-(2,3-dihydro-1,3-dioxo-1H-isoindol-2-yl)ethyl]-N-hydroxyformamide] here?
A: The IC50 was 21 nM.

Q: How did the IC50 turn out when `CCCCC(COc1ccc(-c2cccc(CC#N)c2)cc1)N(O)C=O` (racemic) [Example 6, (±)-N-[1-[[[3'-(cyanomethyl)-[1,1'-biphenyl]-4-yl]oxy]methyl]pentyl]-N-hydroxyformamide] was run?
A: The IC50 was 30 nM.

Q: With `CCC(C)C(COc1ccc(-c2ccc(C#N)cc2)cc1)N(O)C=O` (racemic) [Example 8, (± )-N-[1-[[(4'-cyano-[1,1'-biphenyl]-4-yl)oxy]methyl]-2-methylbutyl]-N-hydroxyformamide] as the compound, how does the IC50 read?
A: The IC50 was 170 nM.

Q: `CCCCC(COc1ccc(-c2ccc(C#N)cc2)cc1)N(O)C=O` (racemic) [Example 9, (±)-N-[1-[[(4'-cyano-[1,1'-biphenyl]-4-yl)oxy]methyl]pentyl]-N-hydroxyformamide] was tested. Which IC50 did it give?
A: The IC50 was 100 nM.

Q: `Cc1ccc(CC(COc2ccc(-c3ccc(C#N)cc3)cc2)N(O)C=O)cc1` (racemic) [Example 10, (±)-N-[1-[[(4'-cyano-[1,1'-biphenyl]-4-yl)oxy]methyl]-2-(4-methylphenyl)ethyl]-N-hydroxyformamide] was tested. Which IC50 did it give?
A: The IC50 was 1500 nM.

Q: Which IC50 does the source give for `N#Cc1ccc(-c2ccc(OCC(c3ccc(F)cc3)N(O)C=O)cc2)cc1` (racemic) [Example 11, (±)-N-[2-[(4'-cyano-[1,1'-biphenyl]-4-yl)oxy]-1-(4-fluorophenyl)ethyl)-N-hydroxyformamide] here?
A: Its IC50 is 300 nM.

Q: For `N#Cc1ccc(-c2ccc(OCC(Cc3ccc(F)cc3)N(O)C=O)cc2)cc1` (racemic) [Example 12, (±)-N-[1-[[(4'-cyano-[1,1'-biphenyl]-4-yl)oxy]methyl]-2-(4-fluorophenyl)ethyl]-N-hydroxyformamide], which IC50 is on record?
A: Its IC50 is 180 nM.

Q: With `CC(COc1ccc(-c2ccc(C#N)cc2)cc1)N(O)C=O` (racemic) [Example 13, (±)-N-[1-[[(4'-cyano-[1,1'-biphenyl]-4-yl)oxy]methyl]ethyl]-N-hydroxyformamide] as the compound, how does the IC50 read?
A: Its IC50 is 310 nM.

Q: `CC(=O)N(O)CCOc1ccc(-c2ccc(C#N)cc2)cc1` [Example 14, N-[2-[(4'-cyano-[1,1'-biphenyl]-4-yl)oxy]ethyl]-N-hydroxyacetamide] was tested. Which IC50 did it give?
A: Its IC50 is 4000 nM.

Q: For `N#Cc1ccc(-c2ccc(OCCN(O)C=O)cc2)cc1` [Example 15], which IC50 is on record?
A: The IC50 was 620 nM.

— EP1001930B1, “N-HYDROXYFORMAMIDE DERIVATIVES AS INHIBITORS OF MATRIX METALLOPROTEINASES” (Abbott Laboratories, priority 1997, dated 1999)
